Laboratory results taken from patent US20140335396A1, “Microporous Membrane” (ASAHI KASEI E-MATERIALS CORPORATION, priority 2011, published 2014).

Test: Solubility in water of the surfactant
Assay type: physicochemical
Conditions: water at 25° C.
Description: As long as the above-described surfactant adhered to a base membrane includes at least a surfactant (A) soluble in water and a surfactant (B) insoluble in water, the above-described surfactant adhered to a base membrane may also include another surfactant (i.e., a surfactant having a solubility in water of 0.1 g based on 100 g of water to 5 g based on 100 g of water.)
(7) Solubility in Water (g Per 100 g of Water)
Aliquots, each of which is 0.01 g of a surfactant, were added one by one to 100 g of water at 25° C. while stirring. The total amount of the surfactant added (g) when the solution changed from clear to opaque was taken as the degree of the solubility in water

Solubility in water	Compound
≤ 0.1 g per 100 g of water	CCCCCCCC/C=C/CCCCCCCC1=NCCN1CCO [oleyl imidazoline]
≥ 5 g per 100 g of water	polyoxyethylene alkyl ether
